Our source for the EC50 values is patent US8703805B2 (Exelixis Patent Company LLC, priority 2005, dated 2014).

Each structure is given as a SMILES string.

For this experiment, the system named is LXRα and/or LXRβ. Put plainly: LXR/LXRE co-transfection assay (luciferase reporter, CV-1 cells). The format is cell-based, human. The note with it: IC50 or EC50 for LXR (LXRα and/or LXRβ, not distinguished), tested as described in Example 109, CV-1 cells. The gist of the method: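 Transient co-transfection of CV-1 cells with full-length human LXRα or LXRβ plus RXRα expression plasmids and an LXREx1-Tk-luciferase reporter; compounds (10 μM screen, ≤1% DMSO) incubated 20 h at 37 °C. Luminescence read after lysis; EC50/IC50 from 8-point half-log curves, efficacy relative to a high control or DMSO.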
Usually EC50 stands for the concentration that produces a half-maximal response. As for `COC(=O)c1cc(-c2ccc(-c3cccc(S(C)(=O)=O)c3)s2)n(-c2ccccc2C(F)(F)F)n1` [Example 1156, methyl 5-{5-[3-(methylsulfonyl)phenyl]-2-thienyl}-1-[2-(trifluoromethyl)phenyl]-1H-pyrazole-3-carboxylate], the EC50 lay in the range of 1000 to 10000 nM.

`CC(O)c1cc(-c2ccc(-c3cccc(S(C)(=O)=O)c3)s2)n(-c2ccccc2Cl)n1` (centres unmarked) [Example 1157, 1-[1-(2-chlorophenyl)-5-{5-[3-(methylsulfonyl)phenyl]-2-thienyl}-1H-pyrazol-3-yl]ethanol]: the concentration for a half-maximal effect (EC50) is less than 1000 nM.

`CC(C)(O)c1cc(-c2ccc(-c3cccc(S(C)(=O)=O)c3)s2)n(-c2ccccc2C(F)(F)F)n1` [Example 1158, 2-(5-{5-[3-(methylsulfonyl)phenyl]-2-thienyl}-1-[2-(trifluoromethyl)phenyl]-1H-pyrazol-3-yl)propan-2-ol] displayed a concentration for a half-maximal effect (EC50) of less than 1000 nM.

`CC(C)(c1cc(-c2ccc(-c3cccc(S(C)(=O)=O)c3)s2)n(-c2ccccc2Cl)n1)N1CCOCC1` [Example 1159, 4-{1-[1-(2-chlorophenyl)-5-{5-[3-(methylsulfonyl)phenyl]-2-thienyl}-1H-pyrazol-3-yl]-1-methylethyl}morpholine] registered a 50% effective concentration (EC50) of less than 1000 nM. The compound `CS(=O)(=O)c1cccc(-c2ccc(-c3cc(C(=O)NCC(F)(F)F)nn3-c3ccccc3Cl)s2)c1` [Example 1161, 1-(2-chlorophenyl)-5-{5-[3-(methylsulfonyl)phenyl]-2-thienyl}-N-(2,2,2-trifluoroethyl)-1H-pyrazole-3-carboxamide] had a concentration for a half-maximal effect (EC50) of less than 1000 nM. For `CON(C)C(=O)c1cc(-c2ccc(-c3cccc(S(C)(=O)=O)c3)s2)n(-c2ccccc2Cl)n1` [Example 1162, 1-(2-chlorophenyl)-N-methyl-N-(methyloxy)-5-{5-[3-(methylsulfonyl)phenyl]-2-thienyl}-1H-pyrazole-3-carboxamide], the half-maximal effective concentration (EC50) was less than 1000 nM. In turn, `CONC(=O)c1cc(-c2ccc(-c3cccc(S(C)(=O)=O)c3)s2)n(-c2ccccc2Cl)n1` [Example 1163, 1-(2-chlorophenyl)-N-(methyloxy)-5-{5-[3-(methylsulfonyl)phenyl]-2-thienyl}-1H-pyrazole-3-carboxamide] displayed a 50% effective concentration (EC50) of 1000 to 10000 nM.

As to `CS(=O)(=O)c1cccc(-c2ccc(-c3cc(C(O)(C(F)(F)F)C(F)(F)F)nn3-c3ccccc3Cl)s2)c1` [Example 1164, 2-[1-(2-chlorophenyl)-5-{5-[3-(methylsulfonyl)phenyl]-2-thienyl}-1H-pyrazol-3-yl]-1,1,1,3,3,3-hexafluoropropan-2-ol], the EC50 is less than 1000 nM. `CC(C)(C(=O)O)c1cccc(-c2ccc(-c3cc(C(F)(F)F)nn3-c3ncccc3C(F)(F)F)s2)c1` [Example 1165, 2-methyl-2-[3-(5-{3-(trifluoromethyl)-1-[3-(trifluoromethyl)pyridin-2-yl]-1H-pyrazol-5-yl}-2-thienyl)phenyl]propanoic acid] came in with a half-maximal effective concentration (EC50) of 1000 to 10000 nM.

`CC(C)(C(=O)O)c1cccc(-c2ccc(-c3cc(C(F)(F)F)nn3Cc3ccc(Cl)s3)s2)c1` [Example 1166, 2-[3-(5-{1-[(5-chloro-2-thienyl)methyl]-3-(trifluoromethyl)-1H-pyrazol-5-yl}-2-thienyl)phenyl]-2-methylpropanoic acid] returned a concentration giving a half-maximal response (EC50) of less than 1000 nM. `CC(C)S(=O)(=O)c1cccc(-c2ccc(-c3cc(C(F)(F)F)nn3-c3ccccc3Cl)cc2)c1` [Example 1167, 1-(2-chlorophenyl)-5-{3′-[(1-methylethyl)sulfonyl]biphenyl-4-yl}-3-(trifluoromethyl)-1H-pyrazole] gave an EC50 of less than 1000 nM. `CC(C)S(=O)(=O)c1cccc(-c2ccc(-c3cc(C(F)(F)F)nn3-c3ccccc3C(F)(F)F)cc2)c1` [Example 1168, 5-{3′-[(1-methylethyl)sulfonyl)biphenyl-4-yl}-3-(trifluoromethyl)-1-[2-(trifluoromethyl)phenyl]-1H-pyrazole]: the 50% effective concentration (EC50) is less than 1000 nM. The value for `CC(C)S(=O)(=O)c1cccc(-c2ccc(-c3cc(C(F)(F)F)nn3-c3ncccc3C(F)(F)F)s2)c1` [Example 1169, 2-[5-(5-{3-[(1-methylethyl)sulfonyl)phenyl}-2-thienyl)-3-(trifluoromethyl)-1H-pyrazol-1-yl]-3-(trifluoromethyl)pyridine] was less than 1000 nM. The same measure for `COC(=O)c1cc(-c2ccc(-c3cccc(S(=O)(=O)C(C)C)c3)s2)n(-c2ncccc2C(F)(F)F)n1` [Example 1170, methyl 5-(5-{3-[(1-methylethyl)sulfonyl]phenyl}-2-thienyl)-1-[3-(trifluoromethyl)pyridin-2-yl]-1H-pyrazole-3-carboxylate]: less than 1000 nM. The same measure for `CN(C)C(C)(C)c1cc(-c2ccc(-c3cccc(S(C)(=O)=O)c3)s2)n(-c2ccccc2Cl)n1` [Example 1172, 2-[1-(2-chlorophenyl)-5-{5-[3-(methylsulfonyl)phenyl]-2-thienyl}-1H-pyrazol-3-yl]-N,N-dimethylpropan-2-amine]: less than 1000 nM; for `CCC(=O)c1cc(-c2ccc(-c3cccc(S(C)(=O)=O)c3)s2)n(-c2ccccc2Cl)n1` [Example 1173, 1-[1-(2-chlorophenyl)-5-{5-[3-(methylsulfonyl)phenyl]-2-thienyl}-1H-pyrazol-3-yl]propan-1-one]: less than 1000 nM. With `CCC(O)(CC)c1cc(-c2ccc(-c3cccc(S(C)(=O)=O)c3)s2)n(-c2ccccc2Cl)n1` [Example 1174, 3-[1-(2-chlorophenyl)-5-{5-[3-(methylsulfonyl)phenyl]-2-thienyl}-1H-pyrazol-3-yl]pentan-3-ol], the half-maximal effective concentration (EC50) was less than 1000 nM. The same measure for `CCC(O)c1cc(-c2ccc(-c3cccc(S(C)(=O)=O)c3)s2)n(-c2ccccc2Cl)n1` (centres unmarked) [Example 1175, 1-[1-(2-chlorophenyl)-5-{5-[3-(methylsulfonyl)phenyl]-2-thienyl}-1H-pyrazol-3-yl]propan-1-ol]: less than 1000 nM; for `C/C(=N\O)c1cc(-c2ccc(-c3cccc(S(C)(=O)=O)c3)s2)n(-c2ccccc2Cl)n1` [Example 1176, (1E)-1-[1-(2-chlorophenyl)-5-{5-[3-(methylsulfonyl)phenyl]-2-thienyl}-1H-pyrazol-3-yl]ethanone oxime]: less than 1000 nM.

`CO/N=C(\C)c1cc(-c2ccc(-c3cccc(S(C)(=O)=O)c3)s2)n(-c2ccccc2Cl)n1` [Example 1177, (1E)-1-[1-(2-chlorophenyl)-5-{5-[3-(methylsulfonyl)phenyl]-2-thienyl}-1H-pyrazol-3-yl]ethanone O-methyloxime] gave an EC50 of less than 1000 nM.

As to `CC(C)(O)c1cc(-c2ccc(-c3cccc(S(C)(=O)=O)c3)s2)n(-c2ncccc2C(F)(F)F)n1` [Example 1178, 2-(5-{5-[3-(methylsulfonyl)phenyl]-2-thienyl}-1-[3-(trifluoromethyl)pyridin-2-yl]-1H-pyrazol-3-yl)propan-2-ol], the half-maximal effective concentration (EC50) is less than 1000 nM. The value for `COC(=S)c1cc(-c2ccc(-c3cccc(S(C)(=O)=O)c3)s2)n(-c2ccccc2C(F)(F)F)n1` [Example 1179, O-methyl 5-{5-[3-(methylsulfonyl)phenyl]-2-thienyl}-1-[2-(trifluoromethyl)phenyl]-1H-pyrazol-3-carbothioate] was 1000 to 10000 nM. The same measure for `CCS(=O)(=O)c1cccc(-c2ccc(-c3cc(C(C)(C)C#N)nn3-c3ccccc3Cl)s2)c1` [Example 1180, 2-[1-(2-chlorophenyl)-5-{5-[3-(ethylsulfonyl)phenyl]-2-thienyl}-1H-pyrazol-3-yl]-2-methylpropanenitrile]: less than 1000 nM.
